Paper PMC6892255, “Identification of a potent small-molecule inhibitor of bacterial DNA repair that potentiates quinolone antibiotic activity in methicillin-resistant Staphylococcus aureus^” (Bioorganic & Medicinal Chemistry, 2019)

What was measured:
[1] = tested on: methicillin-resistant S. aureus (MRSA, USA300 JE2); experiment: MIC / growth inhibition assay (end-point OD600), single agent; type: cell-based, Staphylococcus aureus; details: for fold less potent against JE2 compared to SH1000: ratio of single-agent EC50 values
Description: (§1) Minimum inhibitory concentration (MIC) assays were used to evaluate the antimicrobial activity of compounds against Gram-negative (E. coli) and Gram-positive (S. aureus) bacteria. […] Gram-positive bacteria are more susceptible to small-molecule penetration, and compounds were therefore assessed for growth inhibition against the S. aureus SH1000 strain.
Methicillin-resistant S. aureus (MRSA) is a multi-drug resistant bacterium responsible for a large number of nosocomial infections.[34] The emergence of community associated (CA)-MRSA capable of infection of healthy individuals highlights its significance and clinical relevance.[35]
(§2) 2.1. Biological and biochemical methods
(§3) Bacterial strains and culture conditions
(§4) Strains utilized in the present study are detailed in Table S1. All strains used were cultivated on Mueller Hinton Agar (MHA) and grown to stationary-phase in Mueller Hinton Broth (MHB) at 37 °C for 16 h, with shaking at 180 r.p.m.
(§5) Minimum inhibitory concentration (MIC) assays
(§6) MIC assays were performed in 96 well plates and MICs were determined in accordance with the broth microdilution protocol.4 Strains grown to stationary-phase in MHB were adjusted to 5 x 10^5 colony-forming units (CFU)/mL in fresh MHB (100 µL/well) supplemented with DMSO to ensure a constant concentration of 0.5% (v/v) DMSO across all experiments. Where […]
(§7) or H2O2 (200 μM). Test compounds were prepared as two-fold serial dilutions. Cells were […]
(§8) as the lowest concentration with no visible bacterial growth, and the optical density at 600 nm (OD600) was recorded. OD600 measurements were background corrected against no-inocula control and normalized to DMSO control for dose-response analysis. The EC50 value mean and SEM were calculated from individual EC50 values from three biological replicates. […]

[2] = tested on: methicillin-resistant S. aureus (MRSA, USA300 JE2); experiment: Ciprofloxacin (CFX) potentiation in MRSA growth inhibition assay; type: cell-based, Staphylococcus aureus; details: for EC50: read-out: EC50 S. aureus (USA300 JE2) Compound + CFX (9.4 μM), in presence of half-MIC CFX (9.4 μM)
Procedure: as §2, §3, §4, §5, §6, §7, §8

MRSA (USA300 JE2) [3] = experiment: Growth inhibition in the presence of H2O2; type: cell-based, Staphylococcus aureus; details: read-out: EC50 Compound + H2O2 (200 µM); MRSA USA300 JE2, H2O2 200 µM
Procedure: (§9) The analogue panel was further tested for potentiation of alternative DNA-damaging agents Mitomycin-C (MMC) and hydrogen peroxide (Table S2), which function via alkylation and oxidization DNA bases, respectively.
as §2, §3, §4, §5, §6, §7, §8

MRSA (USA300 JE2) [4] = experiment: Growth inhibition in the presence of mitomycin-C; type: cell-based, Staphylococcus aureus; details: read-out: EC50 Compound + MMC (0.40 µM); MRSA USA300 JE2, mitomycin-C 0.40 µM
Procedure: as §9, §2, §3, §4, §5, §6, §7, §8

E. coli K-12 BW25113 = experiment: MIC / growth inhibition assay (end-point OD600), single agent; type: cell-based, Escherichia coli; details: for EC50: Escherichia coli, BW25113, end-point OD600 after 18 h, read-out: EC50 E. coli (K12 BW25113) Compound only
Description: as §1, §2, §3, §4, §5, §6, §7, §8

S. aureus SH1000 = experiment: as above; type: cell-based; details: Staphylococcus aureus, SH1000, 18 h, end-point OD600 after 18 h, read-out: EC50 S. aureus (SH1000) Compound only
Description: as §1, §2, §3, §4, §5, §6, §7, §8

E. coli topoisomerase IV = molecular target: T1, E. coli topoisomerase IV (Escherichia coli, UniProt P0AFI2+P20083); experiment: Topoisomerase IV supercoiling relaxation assay (pQE80L); type: biochemical; details: at 12.5 µM (compounds)
T1 construct: purchased Inspiralis
Procedure: 2.1. Biological and biochemical methods […]
E. coli DNA gyrase supercoiling assay (Inspiralis) was performed according to the manufacturer’s instructions, ensuring a constant concentration of 1% (v/v) DMSO. Samples were separated on a 1% (w/v) agarose gel prepared with Tris/Borate/EDTA (TBE) buffer (1 M Tris-borate, 20 mM EDTA, pH 8.0). Electrophoresis was performed at 100 V until the bromophenol blue dye had run >6 cm to ensure resolution of relaxed and supercoiled DNA.
The gel was stained with SYBR Safe DNA gel stain (Invitrogen, 1:10,000 dilution in TBE) for 30 min, and visualized on a Syngene Gel Doc system. Band intensity was quantified using ImageJ software and the fraction of supercoiled plasmid was determined as the ratio of the density of the supercoiled band to the total density. Values were background corrected against the no-gyrase control and normalized to DMSO control for dose-response analysis.
E. coli topoisomerase IV supercoiling relaxation assay (Inspiralis) was performed according to the manufacturer’s instructions, ensuring a constant concentration of 1% (v/v) DMSO.
Supercoiled pQE80L was prepared via plasmid purification and used as the substrate for the reaction. Reactions were analyzed as described for DNA gyrase assays. […]

JE2 = experiment: Synergy experiments with CFX (growth rate method, Chou-Talalay, CompuSyn); type: cell-based, Staphylococcus aureus; details: for Combination index (CI) with CFX: JE2, constant-ratio combination with CFX, CompuSyn; for EC50: Staphylococcus aureus, JE2, rate of exponential growth phase over 17 h at 37 °C
Procedure: A more precise method to determine EC50 values for individual compounds and combinations was used to increase accuracy for CI calculations. […]
Synergy experiments were performed as described for MIC assays. Two-fold serial dilutions […]
carried out at 37 °C, with shaking at 220 r.p.m. OD600 was recorded every 30 min over a 17 h period. Measurements were background corrected against the no-inocula control before a growth curve of OD600 against time was constructed. The gradient of the exponential phase was obtained by linear regression. Gradients were normalized against the smallest and largest value within the respective data set prior to analysis with the CompuSyn software (http://www.combosyn.com/) to calculate combination index (CI) and dose-reduction index (DRI) values for each drug combination. […]

[5] = Staphylococcus aureus, 18 h, read-out: EC50 S. aureus (USA300 JE2) Compound only, single agent, end-point OD600 after 18 h

T1 sequence (P0AFI2 whole entry): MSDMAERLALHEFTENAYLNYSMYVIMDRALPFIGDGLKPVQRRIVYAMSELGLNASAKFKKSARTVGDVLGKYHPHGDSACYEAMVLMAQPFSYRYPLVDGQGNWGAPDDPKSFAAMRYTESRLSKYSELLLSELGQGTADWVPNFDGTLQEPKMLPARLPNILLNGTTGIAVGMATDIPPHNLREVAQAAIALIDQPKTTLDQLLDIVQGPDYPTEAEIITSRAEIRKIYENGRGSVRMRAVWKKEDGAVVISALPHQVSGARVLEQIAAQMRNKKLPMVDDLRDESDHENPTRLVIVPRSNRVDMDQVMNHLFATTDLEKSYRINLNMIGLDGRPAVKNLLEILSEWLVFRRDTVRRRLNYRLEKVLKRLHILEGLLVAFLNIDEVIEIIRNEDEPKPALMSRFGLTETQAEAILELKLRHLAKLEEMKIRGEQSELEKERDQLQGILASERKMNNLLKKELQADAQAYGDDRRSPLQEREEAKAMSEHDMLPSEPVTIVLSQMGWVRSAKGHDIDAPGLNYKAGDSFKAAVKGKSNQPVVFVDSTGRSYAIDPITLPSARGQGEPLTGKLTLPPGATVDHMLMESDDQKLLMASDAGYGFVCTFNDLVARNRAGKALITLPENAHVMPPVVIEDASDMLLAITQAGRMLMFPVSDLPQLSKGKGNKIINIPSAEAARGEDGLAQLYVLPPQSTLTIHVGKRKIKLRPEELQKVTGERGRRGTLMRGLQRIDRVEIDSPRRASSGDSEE
T1 sequence (P20083 whole entry): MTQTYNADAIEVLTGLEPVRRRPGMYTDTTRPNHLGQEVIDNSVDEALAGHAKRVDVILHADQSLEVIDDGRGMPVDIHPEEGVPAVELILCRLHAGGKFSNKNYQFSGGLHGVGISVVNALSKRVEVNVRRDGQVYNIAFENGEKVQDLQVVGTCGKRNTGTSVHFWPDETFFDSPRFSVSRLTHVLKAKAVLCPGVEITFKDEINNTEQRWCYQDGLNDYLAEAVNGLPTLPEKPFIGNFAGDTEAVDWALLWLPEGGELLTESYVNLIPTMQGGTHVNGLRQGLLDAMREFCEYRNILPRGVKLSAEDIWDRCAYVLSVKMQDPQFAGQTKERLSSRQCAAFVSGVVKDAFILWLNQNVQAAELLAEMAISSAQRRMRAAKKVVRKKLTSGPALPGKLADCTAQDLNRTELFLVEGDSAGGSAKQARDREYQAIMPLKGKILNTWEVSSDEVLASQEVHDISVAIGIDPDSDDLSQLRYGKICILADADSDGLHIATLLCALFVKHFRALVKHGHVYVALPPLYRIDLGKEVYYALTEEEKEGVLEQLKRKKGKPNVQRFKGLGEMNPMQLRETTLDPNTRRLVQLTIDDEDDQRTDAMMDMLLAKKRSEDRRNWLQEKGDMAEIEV

SMILES | EC50 [1, 5] | EC50 [2] | EC50 (MRSA (USA300 JE2) [3]) | EC50 (MRSA (USA300 JE2) [4]) | EC50 (E. coli K-12 BW25113) | EC50 (S. aureus SH1000) | fold less potent against JE2 compared to SH1000 [1] | fold higher potency than other CFX derivatives in E. coli (E. coli K-12 BW25113) | Inhibition of topoisomerase IV (E. coli topoisomerase IV) | Combination index (CI) with CFX (JE2) | EC50 (JE2) | EC50 ([1]; single agent, end-point OD600 after 18 h, read-out: EC50 S. aureus (USA300 JE2) Compound only) | EC50 ([1]; read-out: EC50 S. aureus (USA300 JE2) Compound only, single agent, end-point OD600 after 18 h) | fold increase in potency against JE2 in the presence of CFX compared to single agent ([2]; CFX 9.4 µM)
CCn1cc(C(=O)O)c(=O)c2cnc(N3CCN(C(=S)Nc4cccc(F)c4)CC3)nc21 [Compound 2] | 27 ± 0.4 µM | 0.73 ± 0.12 µM | 24 ± 3 µM | 21 ± 2.2 µM | > 100 µM | 6.9 ± 0.4 µM |  |  |  |  |  |  |  | 
O=C(O)c1cn(C2CC2)c2cc(N3CCN(C(=S)Nc4cccc(F)c4)CC3)c(F)cc2c1=O [Compound 8] | 4.8 ± 0.9 µM | 0.22 ± 0.05 µM | 4.6 ± 0.4 µM | 3.4 ± 0.9 µM | 0.24 ± 0.03 µM | 0.08 ± 0.01 µM | > 20 fold | approximately 2 fold |  |  |  |  |  | 
CC1CN(c2cc3c(cc2F)c(=O)c(C(=O)O)cn3C2CC2)CCN1C(=S)Nc1ccc(C(F)(F)F)cc1 (centres unmarked) [Compound 16] | 3.9 ± 0.4 µM | 0.018 ± 0.003 µM |  |  | 0.3 ± 0.06 µM | 0.26 ± 0.04 µM |  |  |  |  |  |  |  | 
NCCNC(=O)c1cn(C2CC2)c2cc(N3CCN(C(=S)Nc4ccc(C(F)(F)F)cc4)CC3)c(F)cc2c1=O [Compound 20] | 78 ± 8 µM |  |  |  | 47 ± 1 µM | 76 ± 5 µM |  |  |  |  |  |  |  | 
O=C(O)c1cn(C2CC2)c2cc(N3CCN(C(=S)Nc4cccc(Cl)c4)CC3)c(F)cc2c1=O [Compound 11] | 2.8 ± 0.1 µM | 0.084 ± 0.007 µM | 3.2 µM | 2.2 ± 0.6 µM | 0.46 ± 0.1 µM | 0.12 ± 0.04 µM | > 20 fold |  |  |  |  |  |  | 
CC(C)(C)OC(=O)NCCNC(=O)c1cn(C2CC2)c2cc(N3CCN(C(=S)Nc4ccc(C(F)(F)F)cc4)CC3)c(F)cc2c1=O [Compound 19] | > 100 µM |  |  |  | > 100 µM | > 100 µM |  |  |  |  |  |  |  | 
CCn1cc(C(=O)O)c(=O)c2cnc(N3CCN(C(=S)Nc4cccc(C(F)(F)F)c4)CC3)nc21 [Compound 1, reference compound] | 6.9 ± 0.6 µM | 1.1 ± 0.1 µM | 6.5 ± 0.1 µM | 3.3 ± 0.6 µM | > 100 µM | 8.2 ± 1.7 µM |  |  | not inhibited and not | 1.0 | 5.9 ± 0.2 µM |  |  | 
OO [Compound H2O2, hydrogen peroxide, reference compound] |  |  |  |  |  |  |  |  |  |  |  | 147 ± 11 µM |  | 
CCn1cc(C(=O)O)c(=O)c2cnc(N3CCN(C(=S)Nc4cccc(Cl)c4)CC3)nc21 [Compound 5] | ~6 µM | 0.31 ± 0.02 µM | 8.4 ± 0.2 µM | 4.5 ± 1.2 µM | > 100 µM | ~6 µM |  |  | not | 0.96 | 6.2 ± 0.1 µM |  | 6.9 ± 0.1 µM | ~20 fold
CO[C@@]12[C@H](COC(N)=O)C3=C(C(=O)C(C)=C(N)C3=O)N1C[C@@H]1N[C@@H]12 [MMC, Mitomycin-C, reference compound] | 0.33 ± 0.01 µM |  |  |  |  |  |  |  |  |  |  |  |  | 
